Consider eight compounds from patent US11970494B2, “6-heteroaryloxy benzimidazoles and azabenzimidazoles as JAK2 inhibitors” (Ajax Therapeutics, Inc., priority 2021, dated 2024).

Usually IC50 stands for the concentration at which inhibition is half-maximal. As usually defined, the solubility is the concentration that dissolves in the medium under given conditions. A lower solubility goes with little dissolved substance.

≈ marks a conversion by molar mass, not a printed value. Like-named read-outs stand apart in the source and are kept apart here.

Data set [1] relates to JAK2-mediated pSTAT5 signaling in constitutively active essential thrombocytopenia cells carrying the V617F mutation. Nature of the data set: SET2-pSTAT5 Cellular Assay. It counts as cell-based. As to conditions: Homo sapiens. On the procedure:
This assay measures inhibition of JAK2-mediated pSTAT5 signaling in constitutively active essential thrombocytopenia cells carrying the V617F mutation. Cells are harvested from a flask into cell culture medium, and the number of cells is counted. The cells are diluted with culture medium and 100 μL of cell suspension (50000/well) is added into each well of a 96-well cell culture plate. A solution of test compound is added to the assay plate. The plates are covered with a lid and placed in a 37° C. 5% CO2 incubator for 4 hours. After 4 hours, the cells are spun, and the cell pellets are re-suspended with 100 μL cold PBS. Then, the cells are spun again at 4° C. and 4000 rpm for 5 min. PBS is aspirated, and 25 μL lysis buffer (with protease and phosphatase inhibitor cocktail) is added to each cell pellet. The cell lysate is shaken at 4° C. for 20 min to fully lyse the cells. The cell lysate is spun at 4° C. and 4000 rpm for 15 min, and then the supernatant is transferred into a new plate and stored at −80° C. Meso-scale discovery (MSD) is used to analyze plates as follows: a standard MSD plate is coated with capture antibody in PBS (40 μL/well) and is incubated at 4° C. overnight with shaking. The MSD plate is washed three times with 150 μL/well of 1×MSD Wash Buffer (Tris-buffered saline with 0.1% Tween® 20 detergent, TBST). The MSD plates are then blocked with 150 μL of blocking buffer (5% BSA in TBST) and shaken for 1 h at room temperature and 600 rpm. The MSD plate is washed three times with 150 μL/well of 1×MSD Wash Buffer (TBST). Sample lysates are then added to MSD plates (25 μL/well) and shaken for 1 h at room temperature and 600 rpm. The MSD plate is washed three times with 150 μL/well of 1×MSD Wash Buffer (TBST). Detection antibody (prepared in Antibody Detection buffer, 1% BSA in 1×TBST) is then added to the MSD plates, and they are shaken for 1 h at room temperature and 600 rpm. The MSD plate is washed three times with 150 μL/well of 1×MSD Wash Buffer (TBST). A secondary detection antibody (prepared in Antibody Detection buffer, 1% BSA in 1×TBST) is then added to the MSD plates, and they are shaken for 1 h at room temperature and 600 rpm. The MSD plate is washed three times with 150 μL/well of 1×MSD Wash Buffer (TBST). MSD reading buffer (1×) is added to the plates (150 μL/well), and they are diluted from 4× with water. The plates are imaged using an MSD imaging instrument according to the manufacturer's instructions.

A short description of data set [2]: Kinetic Solubility Assay. It counts as physicochemical. The conditions noted are these: aqueous buffer, kinetic from dmso stock, kinetic solubility in PBS (pH 4.0 and pH 7.4 in method; pH of table values not stated), RT. How it is done: Stock solutions of test compounds are prepared in DMSO at the concentration of 10 mM, and a stock solution of control compound is prepared in DMSO at the concentration of 30 mM. Diclofenac is used as positive control in the assay. 30 μL stock solution of each compound is placed into their a 96-well rack, followed by adding 970 μL of PBS at pH 4.0 and pH 7.4 into each vial of the cap-less solubility sample plate. This study is performed in duplicate. One stir stick is added to each vial and then vials are sealed using a molded PTDE/SIL 96-Well Plate Cover. The solubility sample plate is transferred to the Thermomixer comfort plate shaker and incubated at RT for 2 hours with shaking at 1100 rpm. After 2 hours incubation, stir sticks are removed using a big magnet and all samples from the solubility sample plate are transferred into the filter plate. All the samples are filtered by vacuum manifold. The filtered samples are diluted with methanol. Samples are analyzed by LC-MS/MS and quantified against a standard of known concentration in DMSO using LC coupled with Mass spectral peak identification and quantitation. The solubility values of the test compounds are calculated as follows, wherein INJ VOL is injection volume, DF is dilution factor, and STD is standard: […]

Data set [3] addresses T1, JAK1 (Homo sapiens, UniProt P23458).
T1 construct: made in house; host or cells: T7 phage in BL21-derived E. coli or HEK-293 cells
Nature of the data set: JAK Family Selectivity Assay: JAK1 vs JAK2 binding affinity. As to conditions: Kd JAK1 over Kd JAK2. On the procedure:
Provided compounds are evaluated for selectivity by comparing their JAK2 binding affinity (Kd) in the above JAK2 Binding Assay with their binding affinity (Kd) for one or more other kinases. Binding affinity for other kinases is determined as follows: Kinase-tagged T7 phage strains are prepared in an E. coli host derived from the BL21 strain. E. coli are grown to log-phase and infected with T7 phage and incubated with shaking at 32° C. until lysis. The lysates are centrifuged and filtered to remove cell debris. The remaining kinases are produced in HEK-293 cells and subsequently tagged with DNA for qPCR detection. Streptavidin-coated magnetic beads are treated with biotinylated small molecule ligands for 30 minutes at room temperature to generate affinity resins for kinase assays. The liganded beads are blocked with excess biotin and washed with blocking buffer (SeaBlock (Pierce), 1% BSA, 0.05% Tween 20, 1 mM DTT) to remove unbound ligand and to reduce non-specific binding. Binding reactions are assembled by combining kinases, liganded affinity beads, and test compounds in 1× binding buffer (20% SeaBlock, 0.17×PBS, 0.05% Tween 20, 6 mM DTT). Test compounds are prepared as 111× stocks in 100% DMSO. Kds are determined using an 11-point 3-fold compound dilution series with three DMSO control points. All compounds for Kd measurements are distributed by acoustic transfer (non-contact dispensing) in 100% DMSO. The compounds are then diluted directly into the assays such that the final concentration of DMSO is 0.9%. All reactions are performed in polypropylene 384-well plate. Each has a final volume of 0.02 ml. The assay plates are incubated at room temperature with shaking for 1 hour and the affinity beads are washed with wash buffer (1×PBS, 0.05% Tween 20). The beads are then re-suspended in elution buffer (1× PBS, 0.05% Tween 20, 0.5 μM non-biotinylated affinity ligand) and incubated at room temperature with shaking for 30 minutes. The kinase concentration in the eluates is measured by qPCR. […] In some embodiments, provided compounds may be JAK2-selective over one or more of the following kinases: JAK1, JAK3, and Tyk2.

Setting [4] is: SET-2, SET2 cells, pSTAT5, 4 hours, MSD, read-out: IC50.

T1 sequence (P23458 whole entry): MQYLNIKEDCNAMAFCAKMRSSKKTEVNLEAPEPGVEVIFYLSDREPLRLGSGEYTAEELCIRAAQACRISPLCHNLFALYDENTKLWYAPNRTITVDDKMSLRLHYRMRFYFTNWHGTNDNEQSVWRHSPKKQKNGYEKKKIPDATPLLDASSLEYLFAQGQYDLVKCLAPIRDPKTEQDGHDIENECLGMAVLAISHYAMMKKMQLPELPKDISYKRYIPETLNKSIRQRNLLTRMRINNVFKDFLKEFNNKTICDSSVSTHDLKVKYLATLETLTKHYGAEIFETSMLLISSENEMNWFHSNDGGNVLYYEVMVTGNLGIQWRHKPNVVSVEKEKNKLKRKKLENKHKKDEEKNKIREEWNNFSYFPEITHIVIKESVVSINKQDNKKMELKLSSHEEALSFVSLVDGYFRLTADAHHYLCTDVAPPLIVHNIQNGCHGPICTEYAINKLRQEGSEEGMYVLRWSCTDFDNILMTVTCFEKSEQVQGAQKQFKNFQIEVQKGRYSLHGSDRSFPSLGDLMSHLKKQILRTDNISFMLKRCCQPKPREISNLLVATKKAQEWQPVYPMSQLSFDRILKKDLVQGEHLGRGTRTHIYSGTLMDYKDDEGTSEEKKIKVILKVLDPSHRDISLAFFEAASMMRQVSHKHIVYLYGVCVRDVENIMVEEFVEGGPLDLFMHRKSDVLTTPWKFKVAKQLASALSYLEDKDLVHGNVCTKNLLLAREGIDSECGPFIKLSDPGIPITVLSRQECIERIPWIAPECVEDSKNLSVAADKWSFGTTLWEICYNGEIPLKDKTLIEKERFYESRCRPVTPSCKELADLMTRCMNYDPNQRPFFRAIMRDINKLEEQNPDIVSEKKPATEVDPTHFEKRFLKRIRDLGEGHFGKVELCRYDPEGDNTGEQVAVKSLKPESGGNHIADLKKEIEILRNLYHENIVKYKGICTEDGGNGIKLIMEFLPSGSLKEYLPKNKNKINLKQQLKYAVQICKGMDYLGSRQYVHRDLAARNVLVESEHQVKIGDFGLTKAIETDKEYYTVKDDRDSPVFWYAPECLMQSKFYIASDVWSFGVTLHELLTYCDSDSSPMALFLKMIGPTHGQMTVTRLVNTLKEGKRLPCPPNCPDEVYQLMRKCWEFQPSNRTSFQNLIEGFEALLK

Regarding `CN(C)C(=O)Nc1cc(Oc2cnc3nc(Nc4cc(C(F)(F)F)cn(C)c4=O)n(C)c3c2C#N)ccn1` [Example I-4, 3-(4-((7-cyano-1-methyl-2-((1-methyl-2-oxo-5-(trifluoromethyl)-1,2-dihydropyridin-3-yl)amino)-1H-imidazo[4,5-b]pyridin-6-yl)oxy)pyridin-2-yl)-1,1-dimethylurea], in data set [1] (SET-2, 4 h), the IC50 was less than 125 nM. The solubility at 2 h in data set [2] was 9 to 100 µM (≈ 4.75 to 52.7 µg/mL). Besides, the “JAK1/JAK2 Kd/Kd ratio” value in data set [3] was “B (Kd/Kd ratio <1000 and ≥300)”.
With `COCCOC(=O)Nc1cc(Oc2cnc3nc(Nc4cc5n(n4)CCC54CCC4)n(C)c3c2C#N)ccn1` [Example I-62, 2-methoxyethyl(4-((7-cyano-2-((5′,6′-dihydrospiro[cyclobutane-1,4′-pyrrolo[1,2-b]pyrazol]-2′-yl)amino)-1-methyl-1H-imidazo[4,5-b]pyridin-6-yl)oxy)pyridin-2-yl)carbamate], in data set [1] (setting [4]), the IC50 was less than 125 nM. The same compound yielded a solubility at 2 h in data set [2] of 0.1 to 9 µM (≈ 0.053 to 4.77 µg/mL). The “JAK1/JAK2 Kd/Kd ratio” value in data set [3] is “B (Kd/Kd ratio <1000 and ≥300)”.
Consider `COCC(=O)Nc1cc(Oc2cnc3nc(Nc4cc(C(F)(F)F)cn(C)c4=O)n(C)c3c2C#N)ccn1` [Example I-79, N-(4-((7-cyano-1-methyl-2-((1-methyl-2-oxo-5-(trifluoromethyl)-1,2-dihydropyridin-3-yl)amino)-1H-imidazo[4,5-b]pyridin-6-yl)oxy)pyridin-2-yl)-2-methoxyacetamide], for which the IC50 in data set [1] (setting [4]) was less than 125 nM. Also, the solubility at 2 h in data set [2] lay within 0.1 to 9 µM (≈ 0.0528 to 4.76 µg/mL). Besides, the “JAK1/JAK2 Kd/Kd ratio” value in data set [3] was “C (Kd/Kd ratio <300 and ≥100)”.
Regarding `Cn1c(Nc2cc3n(n2)CCC32CCC2)nc2ncc(Oc3ccnc(NC(=O)C4CC4)c3)c(C#N)c21` [Example I-122, N-(4-((7-cyano-2-((5′,6′-dihydrospiro[cyclobutane-1,4′-pyrrolo[1,2-b]pyrazol]-2′-yl)amino)-1-methyl-1H-imidazo[4,5-b]pyridin-6-yl)oxy)pyridin-2-yl)cyclopropanecarboxamide], the IC50 in data set [1] (setting [4]) is less than 125 nM. The solubility at 2 h in data set [2] was in the range of 0.1 to 9 µM (≈ 0.0496 to 4.46 µg/mL). Also, the “JAK1/JAK2 Kd/Kd ratio” value in data set [3] is listed as “D (Kd/Kd ratio <100)”.
As to `Cn1cc(C(F)(F)F)cc(Nc2nc3ncc(Oc4ccnc(NC(=O)N5CCC5)c4)c(C#N)c3n2C)c1=O` [Example I-7, N-(4-((7-cyano-1-methyl-2-((1-methyl-2-oxo-5-(trifluoromethyl)-1,2-dihydropyridin-3-yl)amino)-1H-imidazo[4,5-b]pyridin-6-yl)oxy)pyridin-2-yl)azetidine-1-carboxamide], the IC50 in data set [1] (setting [4]) is less than 125 nM. This compound also yielded a solubility at 2 h in data set [2] of 0.1 to 9 µM (≈ 0.0539 to 4.86 µg/mL). In addition, in data set [3], the “JAK1/JAK2 Kd/Kd ratio” value is “A (Kd/Kd ratio ≥1000)”.
For the compound `CCN1CCN(Cc2ccc(Nc3nc4ccc(Oc5ccnc(NC(C)=O)c5)cc4n3C)cc2C(F)(F)F)CC1` [Example R-1, reference compound], the IC50 in data set [1] (setting [4]) was in the range of 200 to 1000 nM. Moreover, in data set [2], the solubility at 2 h lay within 100 to 200 µM (≈ 56.8 to 114 µg/mL). In addition, in data set [3], the “JAK1/JAK2 Kd/Kd ratio” value is “C (Kd/Kd ratio <300 and ≥100)”.
For the compound `Cn1cc(C(F)(F)F)cc(Nc2nc3ncc(Oc4ccnc(NC(=O)O[C@@H]5CCOC5)c4)c(C#N)c3n2C)c1=O` [Example I-18, (R)-Tetrahydrofuran-3-yl(4-((7-cyano-1-methyl-2-((1-methyl-2-oxo-5-(trifluoromethyl)-1,2-dihydropyridin-3-yl)amino)-1H-imidazo[4,5-b]pyridin-6-yl)oxy)pyridin-2-yl)carbamate], the IC50 in data set [1] (setting [4]) was less than 125 nM. Also, in data set [2], the solubility at 2 h lay within 0.1 to 9 µM (≈ 0.057 to 5.13 µg/mL). The “JAK1/JAK2 Kd/Kd ratio” value in data set [3] was “C (Kd/Kd ratio <300 and ≥100)”.
Turning to `CC(=O)Nc1cc(Oc2cnc3nc(Nc4cc(C(F)(F)F)cn(C)c4=O)n(C)c3c2Cl)c(F)cn1` [Example I-88, N-(4-((7-chloro-1-methyl-2-((1-methyl-2-oxo-5-(trifluoromethyl)-1,2-dihydropyridin-3-yl)amino)-1H-imidazo[4,5-b]pyridin-6-yl)oxy)-5-fluoropyridin-2-yl)acetamide], the IC50 in data set [1] (setting [4]) is less than 125 nM. Moreover, the solubility at 2 h in data set [2] lay in the range of 0.1 to 9 µM (≈ 0.0526 to 4.73 µg/mL). The “JAK1/JAK2 Kd/Kd ratio” value in data set [3] was “B (Kd/Kd ratio <1000 and ≥300)”.
